Assay results published in patent publication US20240415914A1, “Water Dispersible Cannabinoid Compositions” (priority 2021, published 2024).

Experiment: Stability of cannabinoid and Vitamin E components of Beverage 1 (AB White) stored at 8° C. and 21-25° C., LCMSMS over 570 days
Assay type: physicochemical
Settings: for Stability in AB White, 8° C. (content by LCMSMS): beverage stored at 8° C.; for Stability in AB White, 21-25° C. (content by LCMSMS): beverage stored at 21-25° C.
Procedure: The LCMSMS was calibrated for 0-1000 ng/ml cannabinoids with the same resin material used in the preparation of the concentrates. At each time period, 100 ml of beverage was diluted with 10 ml of methanol and injected into the LCMSMS for analysis.

SMILES: CCCCCc1cc(O)c2c(c1)OC(C)(C)c1ccc(C)cc1-2 [CBN, cannabinol]
- Stability in AB White, 8° C. (content by LCMSMS) (day 0): 2.79 µg/mL
- Stability in AB White, 8° C. (content by LCMSMS) (day 1): 2.77 µg/mL
- Stability in AB White, 8° C. (content by LCMSMS) (day 2): 2.72 µg/mL
- Stability in AB White, 8° C. (content by LCMSMS) (day 3): 2.73 µg/mL
- Stability in AB White, 8° C. (content by LCMSMS) (day 5): 2.76 µg/mL
- Stability in AB White, 8° C. (content by LCMSMS) (day 8): 2.75 µg/mL
- Stability in AB White, 8° C. (content by LCMSMS) (day 9): 2.76 µg/mL
- Stability in AB White, 8° C. (content by LCMSMS) (day 10): 2.79 µg/mL
- Stability in AB White, 8° C. (content by LCMSMS) (day 11): 2.71 µg/mL
- Stability in AB White, 8° C. (content by LCMSMS) (day 12): 2.80 µg/mL
- Stability in AB White, 8° C. (content by LCMSMS) (day 15): 2.79 µg/mL
- Stability in AB White, 8° C. (content by LCMSMS) (day 16): 2.77 µg/mL
- Stability in AB White, 8° C. (content by LCMSMS) (day 17): 2.82 µg/mL
- Stability in AB White, 8° C. (content by LCMSMS) (day 18): 2.71 µg/mL
- Stability in AB White, 8° C. (content by LCMSMS) (day 19): 2.71 µg/mL
- Stability in AB White, 8° C. (content by LCMSMS) (day 22): 2.76 µg/mL
- Stability in AB White, 8° C. (content by LCMSMS) (day 23): 2.71 µg/mL
- Stability in AB White, 8° C. (content by LCMSMS) (day 24): 2.75 µg/mL
- Stability in AB White, 8° C. (content by LCMSMS) (day 25): 2.75 µg/mL
- Stability in AB White, 8° C. (content by LCMSMS) (day 26): 2.76 µg/mL
- Stability in AB White, 8° C. (content by LCMSMS) (day 29): 2.76 µg/mL
- Stability in AB White, 8° C. (content by LCMSMS) (day 30): 2.78 µg/mL
- Stability in AB White, 8° C. (content by LCMSMS) (day 60): 2.68 µg/mL
- Stability in AB White, 8° C. (content by LCMSMS) (day 90): 2.74 µg/mL
- Stability in AB White, 8° C. (content by LCMSMS) (day 120): 2.72 µg/mL
- Stability in AB White, 8° C. (content by LCMSMS) (day 150): 2.69 µg/mL
- Stability in AB White, 8° C. (content by LCMSMS) (day 180): 2.77 µg/mL
- Stability in AB White, 8° C. (content by LCMSMS) (day 210): 2.75 µg/mL
- Stability in AB White, 8° C. (content by LCMSMS) (day 240): 2.70 µg/mL
- Stability in AB White, 8° C. (content by LCMSMS) (day 270): 2.75 µg/mL
- Stability in AB White, 8° C. (content by LCMSMS) (day 300): 2.71 µg/mL
- Stability in AB White, 8° C. (content by LCMSMS) (day 330): 2.75 µg/mL
- Stability in AB White, 8° C. (content by LCMSMS) (day 360): 2.68 µg/mL
- Stability in AB White, 8° C. (content by LCMSMS) (day 390): 2.67 µg/mL
- Stability in AB White, 8° C. (content by LCMSMS) (day 420): 2.70 µg/mL
- Stability in AB White, 8° C. (content by LCMSMS) (day 450): 2.70 µg/mL
- Stability in AB White, 8° C. (content by LCMSMS) (day 480): 2.66 µg/mL
- Stability in AB White, 8° C. (content by LCMSMS) (day 510): 2.60 µg/mL
- Stability in AB White, 8° C. (content by LCMSMS) (day 540): 2.56 µg/mL
- Stability in AB White, 8° C. (content by LCMSMS) (day 570): 2.56 µg/mL
- Stability in AB White, 21-25° C. (content by LCMSMS) (day 0): 2.79 µg/mL
- Stability in AB White, 21-25° C. (content by LCMSMS) (day 1): 2.79 µg/mL
- Stability in AB White, 21-25° C. (content by LCMSMS) (day 2): 2.81 µg/mL
- Stability in AB White, 21-25° C. (content by LCMSMS) (day 3): 2.73 µg/mL
- Stability in AB White, 21-25° C. (content by LCMSMS) (day 5): 2.80 µg/mL
- Stability in AB White, 21-25° C. (content by LCMSMS) (day 8): 2.71 µg/mL
- Stability in AB White, 21-25° C. (content by LCMSMS) (day 9): 2.78 µg/mL
- Stability in AB White, 21-25° C. (content by LCMSMS) (day 10): 2.77 µg/mL
- Stability in AB White, 21-25° C. (content by LCMSMS) (day 11): 2.80 µg/mL
- Stability in AB White, 21-25° C. (content by LCMSMS) (day 12): 2.75 µg/mL
- Stability in AB White, 21-25° C. (content by LCMSMS) (day 15): 2.81 µg/mL
- Stability in AB White, 21-25° C. (content by LCMSMS) (day 16): 2.75 µg/mL
- Stability in AB White, 21-25° C. (content by LCMSMS) (day 17): 2.70 µg/mL
- Stability in AB White, 21-25° C. (content by LCMSMS) (day 18): 2.78 µg/mL
- Stability in AB White, 21-25° C. (content by LCMSMS) (day 19): 2.73 µg/mL
- Stability in AB White, 21-25° C. (content by LCMSMS) (day 22): 2.69 µg/mL
- Stability in AB White, 21-25° C. (content by LCMSMS) (day 23): 2.68 µg/mL
- Stability in AB White, 21-25° C. (content by LCMSMS) (day 24): 2.79 µg/mL
- Stability in AB White, 21-25° C. (content by LCMSMS) (day 25): 2.75 µg/mL
- Stability in AB White, 21-25° C. (content by LCMSMS) (day 26): 2.69 µg/mL
- Stability in AB White, 21-25° C. (content by LCMSMS) (day 29): 2.75 µg/mL
- Stability in AB White, 21-25° C. (content by LCMSMS) (day 30): 2.72 µg/mL
- Stability in AB White, 21-25° C. (content by LCMSMS) (day 60): 2.63 µg/mL
- Stability in AB White, 21-25° C. (content by LCMSMS) (day 90): 2.66 µg/mL
- Stability in AB White, 21-25° C. (content by LCMSMS) (day 120): 2.67 µg/mL
- Stability in AB White, 21-25° C. (content by LCMSMS) (day 150): 2.77 µg/mL
- Stability in AB White, 21-25° C. (content by LCMSMS) (day 180): 2.68 µg/mL
- Stability in AB White, 21-25° C. (content by LCMSMS) (day 210): 2.74 µg/mL
- Stability in AB White, 21-25° C. (content by LCMSMS) (day 240): 2.71 µg/mL
- Stability in AB White, 21-25° C. (content by LCMSMS) (day 270): 2.67 µg/mL
- Stability in AB White, 21-25° C. (content by LCMSMS) (day 300): 2.73 µg/mL
- Stability in AB White, 21-25° C. (content by LCMSMS) (day 330): 2.75 µg/mL
- Stability in AB White, 21-25° C. (content by LCMSMS) (day 360): 2.67 µg/mL
- Stability in AB White, 21-25° C. (content by LCMSMS) (day 390): 2.66 µg/mL
- Stability in AB White, 21-25° C. (content by LCMSMS) (day 420): 2.62 µg/mL
- Stability in AB White, 21-25° C. (content by LCMSMS) (day 450): 2.61 µg/mL
- Stability in AB White, 21-25° C. (content by LCMSMS) (day 480): 2.57 µg/mL
- Stability in AB White, 21-25° C. (content by LCMSMS) (day 510): 2.66 µg/mL
- Stability in AB White, 21-25° C. (content by LCMSMS) (day 540): 2.63 µg/mL
- Stability in AB White, 21-25° C. (content by LCMSMS) (day 570): 2.56 µg/mL
